The values below come from patent publication US11160887B2, “Compositions for use in diagnosing and treating melanoma, including metastatic melanoma and methods related to same” (UNM RAINFOREST INNOVATIONS, priority 2008, dated 2021).

Common to all, as to format: in vivo, mouse
The nature of data set [1]: Biodistribution in B16/F1 murine melanoma-bearing C57 mice. The following applies: female, C57, mouse, iv, 0.037 MBq, total radioactivity; for tissue uptake: all time points (2, 4, 24 h). The procedure: (§1) Biodistribution Studies: All the animal studies were conducted in compliance with Institutional Animal Care and Use Committee approval. The pharmacokinetics of ^111In-DOTA-CycMSH and ^111In-DOTA-GlyGlu-CycMSH were determined in B16/F1 murine melanoma-bearing C57 female mice (Harlan, Indianapolis, Ind.). C57 mice were inoculated subcutaneously with 1×10^6 B16/F1 murine melanoma cells in the right flank. After 10 days, when the weight of tumors reached approximately 0.2 g, 0.037 MBq of ^111In-DOTA-CycMSH or ^111In-DOTA-GlyGlu-CycMSH was injected into each mouse through the tail vein. Groups of 5 mice were sacrificed at 2, 4 and 24 h post-injection, and tumors and organs of interest were harvested, weighed and counted. Blood values were taken as 6.5% of the whole-body weight. The tumor uptake specificity of ^111In-DOTA-CycMSH and ^111In-DOTA-GlyGlu-CycMSH was determined by blocking tumor uptake with the co-injection of 10 μg (6.07 nmol) of unlabeled NDP-MSH, a linear α-MSH peptide analogue with picomolar affinity for the MC1 receptors present on murine melanoma cells. Statistical analysis was performed using the Student's t-test for unpaired data.

Data set [2] has as its system B16/F1 murine melanoma-bearing C57 mice. Described as above. The method, then: as §1
Data set [3] is described as follows: Biodistribution in B16/F10 pulmonary metastatic melanoma-bearing C57 mice. The conditions noted are these: C57, mouse, iv, 0.037 MBq, total radioactivity. The procedure:
(§2) Biodistribution Studies: All the animal studies were conducted in compliance with Institutional Animal Care and Use Committee approval. B16/F10 pulmonary metastatic melanoma model was established by injecting 0.2 million of cultured B16/F10 cells into each C57 mouse (Harlan, Indianapolis, Ind.) through the tail vein. The B16/F10 pulmonary metastatic melanoma-bearing C57 mice were used for biodistribution studies 16 days after the cell injection. The pharmacokinetics of ^111In-DOTA-GlyGlu-CycMSH was determined in B16/F10 pulmonary metastatic melanoma-bearing and normal C57 mice. HPLC-purified 0.037 MBq of ^111In-DOTA-GlyGlu-CycMSH was injected into each mouse through the tail vein. Groups of 5 mice were sacrificed at 2, 4 and 24 h post-injection, and tumors and organs of interest were harvested, weighed and counted. Blood values were taken as 6.5% of the whole-body weight. Statistical analysis was performed using the Student's t-test for unpaired data.

Data set [4] concerns B16/F10 pulmonary metastatic melanoma-bearing C57 mice. The data set is described as above. The method, then:
as §2

Setting [5] is: urine, by 2 h post-injection, read-out: injected radioactivity cleared through the urinary system.

Read-outs that look alike come from different tables or passages of the source. Residues, ends and D or L forms follow the SMILES beside them.

`CCCC[C@@H]1NC(=O)[C@@H](NC(=O)[C@H](CCC(=O)O)NC(=O)CNC(=O)CN2CCN(CC(=O)O)CCN(CC(=O)O)CCN(CC(=O)O)CC2)CCCCNC(=O)[C@H](CC(=O)O)NC(=O)[C@H](C(C)C)NC(=O)[C@@H]2CCCN2C(=O)[C@H](CCCNC(=N)N)NC(=O)CNC(=O)[C@H](Cc2c[nH]c3ccccc23)NC(=O)[C@H](CCCNC(=N)N)NC(=O)[C@@H](Cc2ccccc2)NC(=O)[C@H](Cc2c[nH]cn2)NC(=O)[C@H](CCC(=O)O)NC1=O` [^111In-DOTA-GlyGlu-CycMSH, metal not drawn] (HELM PEPTIDE1{[O=C(O)CN1CCN(CC(=O)O)CCN(CC(=O)[*:2])CCN(CC(=O)O)CC1].G.E.K.[Nle].E.H.[dF].R.W.G.R.P.V.D}$PEPTIDE1,PEPTIDE1,4:R3-15:R2$$$V2.0): the tissue uptake was less than 0.2 %ID/g in data set [1] (bone, read-out: bone uptake) and less than 0.8 %ID/g in data set [1] (normal organs except the kidneys, read-out: normal organ uptakes except for the kidneys). Also, the kidney uptake at 24 h in data set [1] (kidney, 24 h after dose administration) is 9.06 ± 1.82 %ID/g. The tissue uptake at 2 h worked out at 10.4 ± 1.4 %ID/g in data set [1] (tumor, 2 h post-injection, tail vein) and 2 ± 0.74 %ID/g in data set [3] (metastatic melanoma-bearing lung, 2 h post-injection, 16 days post the cell injection). In addition, the tissue uptake at 4 h in data set [1] (tumor, 4 h post-injection, tail vein) worked out at 7.4 ± 0.43 %ID/g; in data set [3] (metastatic melanoma-bearing lung, 4 h post-injection, 16 days post the cell injection) it was 1.83 ± 0.12 %ID/g. The tissue uptake at 24 h in data set [1] (tumor, 24 h post-injection, tail vein) was 2.37 ± 0.28 %ID/g; in data set [3] (metastatic melanoma-bearing lung, 24 h post-injection, 16 days post the cell injection), 0.29 ± 0.06 %ID/g. Besides, the dose excreted in data set [1] (setting [5]) was approximately 90%; in data set [3] (in vivo, at 24 h post-injection, read-out: injected radioactivity cleared out the body), approximately 96%; in data set [3] (setting [5]) it was approximately 84%. In data set [2] (10 μg (6.07 nmol) non-radiolabeled NDP co-injection, 2 h after dose administration), the “tumor uptake with NDP co-injection as % of the tumor uptake without NDP co-injection” value is 2.6%. Further, the tumor uptake in data set [2] (2 h post-injection, tail vein) was found to be 10.40±1.40 % ID/g. Moreover, in data set [2] (4 h post-injection), the “kidney uptake higher than 111In-DOTA-ReCCMSH” value came to 29%. In addition, the “less renal uptake than 111In-DOTA-CycMSH” value in data set [2] (4 h post-injection) came out at 44%. Further, the “renal uptake as % of that of 111In-DOTA-CMSH” value in data set [2] (4 h post-injection) was 34%. Besides, the “uptake in metastatic melanoma-bearing lung relative to normal lung” value in data set [4] (2 h post-injection) was found to be 25.0 times; in data set [4] (4 h post-injection) it was 36.6 times; in data set [4] (24 h post-injection), 9.7 times.
